Where a chain is given by its changes, count along the chain named.
Experiments:
[1] = molecular target: T1, PtKCS2 (Populus trichocarpa, UniProt A0A2K1YQQ5); format: cell-based; details: inhibition; 30 °C, 4 days, yeast culture
T1 sequence (A0A2K1YQQ5 1-524): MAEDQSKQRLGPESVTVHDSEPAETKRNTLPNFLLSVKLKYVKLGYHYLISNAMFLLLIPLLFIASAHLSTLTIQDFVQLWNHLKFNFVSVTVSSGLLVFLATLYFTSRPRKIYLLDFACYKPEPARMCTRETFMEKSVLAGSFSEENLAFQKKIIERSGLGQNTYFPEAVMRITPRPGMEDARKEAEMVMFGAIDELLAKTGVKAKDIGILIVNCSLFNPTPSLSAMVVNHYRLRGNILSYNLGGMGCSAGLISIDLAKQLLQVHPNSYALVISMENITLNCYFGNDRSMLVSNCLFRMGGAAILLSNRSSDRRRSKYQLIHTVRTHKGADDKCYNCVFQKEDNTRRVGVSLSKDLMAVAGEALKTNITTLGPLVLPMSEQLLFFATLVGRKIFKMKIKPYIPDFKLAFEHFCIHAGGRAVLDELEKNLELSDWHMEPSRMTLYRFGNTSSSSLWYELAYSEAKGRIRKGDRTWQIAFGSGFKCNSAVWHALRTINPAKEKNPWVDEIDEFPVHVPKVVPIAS

[2] = molecular target: T2, PtKCS4 (Populus trichocarpa, UniProt U7E0F5); format: cell-based; details: inhibition; 30 °C, 4 days, yeast culture
T2 sequence (U7E0F5 1-524): T1 sequence (A0A2K1YQQ5 1-524) with S94C, K137T, V139T, F144C, C283R

Structure (SMILES): CCc1cccc(CC)c1N(COC)C(=O)CCl [alachlor]
- proportion of total VLC-FAMEs vs uninhibited control at 2 μM [1]: whereas alachlor and anilofos slightly reduced activity
- proportion of total VLC-FAMEs vs uninhibited control at 2 μM [2]: whereas alachlor and anilofos slightly reduced activity

Structure (SMILES): CC(C)N(C(=O)COc1nnc(C(F)(F)F)s1)c1ccc(F)cc1 [flufenacet]
- proportion of total VLC-FAMEs vs uninhibited control at 2 μM [1]: Flufenacet and fentrazamide had the greatest effect on reducing VLCFA elongation in all three KCSs
- proportion of total VLC-FAMEs vs uninhibited control at 2 μM [2]: Flufenacet and fentrazamide had the greatest effect on reducing VLCFA elongation in all three KCSs
